Laboratory results: PubChem BioAssay AID330 (DTP/NCI, 2004)
Where “and” joins values, the source holds several entries; their conditions need not be identical. Equal values may be shown once. Toxic doses and inconclusive results are not listed.

Tested on: P388 leukemia ip, CD2F1 mice, survival T/C
Assay: NCI In Vivo Anticancer Drug Screen. Data for tumor model P388 Leukemia (intraperitoneal) in CD2F1 (CDF1) mice
Conditions: endpoint: median survival time, higher = longer survival
Procedure, shortened: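 Mice carrying the transplanted tumor received test compound or vehicle. Survival was recorded in each group, and the value is the treated-group measurement divided by that of the vehicle-treated control group.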

[1] = dose: 25.0 mg/kg/injection, schedule: Q01DX009 (ip), vehicle: Klucel (hydroxypropylcellulose) (HPC)
[2] = dose: 50.0 mg/kg/injection, schedule: Q01DX009 (ip), vehicle: Klucel (hydroxypropylcellulose) (HPC)
[3] = dose: 50.0 mg/kg/injection, schedule: Q01DX005 (ip), vehicle: saline with Tween-80
[4] = dose: 100.0 mg/kg/injection, schedule: Q01DX005 (ip), vehicle: saline with Tween-80
[5] = dose: 100.0 mg/kg/injection, schedule: Q01DX009 (ip), vehicle: Klucel (hydroxypropylcellulose) (HPC)
[6] = dose: 200.0 mg/kg/injection, schedule: Q01DX009 (ip), vehicle: Klucel (hydroxypropylcellulose) (HPC)
[7] = dose: 25.0 mg/kg/injection, schedule: Q01DX005 (ip), vehicle: saline

Compound: COc1cc2c(cc1O)-c1oncc1CCC2
- T/C (dose: 100.0 mg/kg/injection, schedule: Q04DX002 (ip), vehicle: saline): 94 % of control
- T/C (dose: 200.0 mg/kg/injection, schedule: Q04DX002 (ip), vehicle: saline): 98 % of control
- T/C (dose: 400.0 mg/kg/injection, schedule: Q04DX002 (ip), vehicle: saline): 95 % of control

Compound: O=C(C=C(C(F)(F)F)C(F)(F)F)c1ccc(F)cc1
- T/C (dose: 6.25 mg/kg/injection, schedule: Q04DX003 (ip), vehicle: other): 109 % of control
- T/C (dose: 12.5 mg/kg/injection, schedule: Q04DX003 (ip), vehicle: other): 104 % of control
- T/C (dose: 16.5 mg/kg/injection, schedule: Q01DX009 (ip), vehicle: saline + alcohol): 110 % of control
- T/C (dose: 25.0 mg/kg/injection, schedule: Q01DX009 (ip), vehicle: saline + alcohol): 106 % of control
- T/C (dose: 25.0 mg/kg/injection, schedule: Q04DX003 (ip), vehicle: other): 118 % of control
- T/C (dose: 37.5 mg/kg/injection, schedule: Q01DX009 (ip), vehicle: saline + alcohol): 109 % of control

Compound: Cc1ccc(OP(=O)(Oc2ccc(C)cc2)Oc2ccc(C)cc2)cc1.Cc1ccc(OP(=O)(Oc2ccc(C)cc2)Oc2ccc(C)cc2)cc1.Cc1ccc(OP(=O)(Oc2ccc(C)cc2)Oc2ccc(C)cc2)cc1.Cc1ccc(OP(=O)(Oc2ccc(C)cc2)Oc2cccc(C)c2)cc1.[Cd+2].[O-][Cl+3]([O-])([O-])O
- T/C (dose: 12.5 mg/kg/injection, schedule: Q01DX009 (ip), vehicle: Klucel (hydroxypropylcellulose) (HPC)): 95 % of control
- T/C [1]: 96 % of control
- T/C [2]: 93 % of control and 96 % of control

Compound: CC(NS(=O)(=O)c1ccccc1)c1ccccc1 (configuration not stated)
- T/C (dose: 100.0 mg/kg/injection, schedule: Q04DX003 (ip), vehicle: Klucel (hydroxypropylcellulose) (HPC)): 100 % of control
- T/C (dose: 200.0 mg/kg/injection, schedule: Q04DX003 (ip), vehicle: Klucel (hydroxypropylcellulose) (HPC)): 106 % of control
- T/C (dose: 400.0 mg/kg/injection, schedule: Q04DX003 (ip), vehicle: Klucel (hydroxypropylcellulose) (HPC)): 113 % of control

Compound: CC1(C)C2CCC(O2)C(C)(C)C2CCC(O2)C(C)(C)C2CCC(O2)C(C)(C)C2CCC1O2
- T/C [3]: 102 % of control
- T/C [4]: 100 % of control
- T/C (dose: 200.0 mg/kg/injection, schedule: Q01DX005 (ip), vehicle: saline with Tween-80): 95 % of control

Compound: FC(F)(F)c1ccc(NC(=S)SCc2ccc(Cl)cc2)cc1
- T/C (dose: 50.0 mg/kg/injection, schedule: Q01DX009 (ip), vehicle: suspension in saline): 90 % of control
- T/C (dose: 100.0 mg/kg/injection, schedule: Q01DX009 (ip), vehicle: suspension in saline): 100 % of control
- T/C (dose: 200.0 mg/kg/injection, schedule: Q01DX009 (ip), vehicle: suspension in saline): 108 % of control

Compound: O=C1c2c(O)cc(O)cc2OC(c2ccc(O)cc2O)C1O (configuration not stated)
- T/C (dose: 30.3 mg/kg/injection, schedule: Q01DX009 (ip), vehicle: saline): 98 % of control
- T/C (dose: 60.7 mg/kg/injection, schedule: Q01DX009 (ip), vehicle: saline): 100 % of control
- T/C (dose: 121.4 mg/kg/injection, schedule: Q01DX009 (ip), vehicle: saline): 103 % of control

Compound: Cc1cccc2ncc([N+](=O)[O-])n12
- T/C (dose: 50.0 mg/kg/injection, schedule: Q01DX009 (ip), vehicle: saline with Tween-80): 114 % of control and 88 % of control
- T/C (dose: 100.0 mg/kg/injection, schedule: Q01DX009 (ip), vehicle: saline with Tween-80): 102 % of control and 89 % of control

Compound: CN(C)c1ccc([N+]([O-])=NC#N)cc1
- T/C (dose: 25.0 mg/kg/injection, schedule: Q04DX003 (ip), vehicle: saline with Tween-80): 93 % of control
- T/C (dose: 50.0 mg/kg/injection, schedule: Q04DX003 (ip), vehicle: saline with Tween-80): 95 % of control
- T/C (dose: 100.0 mg/kg/injection, schedule: Q04DX003 (ip), vehicle: saline with Tween-80): 92 % of control

Compound: N/C(=N\C(=O)OCc1ccccc1)NC(=O)OCc1ccccc1
- T/C [1]: 99 % of control and 109 % of control
- T/C [2]: 104 % of control and 105 % of control
- T/C [5]: 103 % of control and 104 % of control
- T/C [6]: 99 % of control and 100 % of control
- T/C (dose: 400.0 mg/kg/injection, schedule: Q01DX009 (ip), vehicle: Klucel (hydroxypropylcellulose) (HPC)): 99 % of control and 93 % of control

Compound: COc1cc2c(cc1O)-c1c(cnn1-c1ccccc1)CCC2
- T/C (dose: 50.0 mg/kg/injection, schedule: Q01DX009 (ip), vehicle: saline): 119 % of control
- T/C (dose: 100.0 mg/kg/injection, schedule: Q01DX009 (ip), vehicle: saline): 118 % of control
- T/C (dose: 200.0 mg/kg/injection, schedule: Q01DX009 (ip), vehicle: saline): 94 % of control

Compound: Cc1c(O)c(=O)ccn1C1OC(CO)C(O)C1O (configuration not stated)
- T/C [7]: 99 % of control
- T/C (dose: 50.0 mg/kg/injection, schedule: Q01DX005 (ip), vehicle: saline): 104 % of control
- T/C (dose: 100.0 mg/kg/injection, schedule: Q01DX005 (ip), vehicle: saline): 99 % of control
- T/C (dose: 200.0 mg/kg/injection, schedule: Q01DX005 (ip), vehicle: saline): 104 % of control
- T/C (dose: 400.0 mg/kg/injection, schedule: Q01DX005 (ip), vehicle: saline): 105 % of control

Compound: CCCCCCCCCCCCNNC(=O)[C@@H]1[C@H](c2cc(OC)c(OC)c(OC)c2)c2cc3c(cc2[C@H](O)[C@H]1CO)OCO3
- T/C [3]: 117 % of control and 124 % of control
- T/C [4]: 122 % of control

Compound: CC#Cc1ccc(-c2ccccc2)s1
- T/C (dose: 1.0 mg/kg/injection, schedule: Q01DX005 (ip), vehicle: Klucel + Tween-80): 96 % of control
- T/C (dose: 2.0 mg/kg/injection, schedule: Q01DX005 (ip), vehicle: Klucel + Tween-80): 98 % of control
- T/C (dose: 4.0 mg/kg/injection, schedule: Q01DX005 (ip), vehicle: Klucel + Tween-80): 94 % of control
- T/C (dose: 8.0 mg/kg/injection, schedule: Q01DX005 (ip), vehicle: Klucel + Tween-80): 93 % of control

Compound: NC1=NC(O)C=C1 (configuration not stated)
- T/C (dose: 12.5 mg/kg/injection, schedule: Q01DX005 (ip), vehicle: saline): 105 % of control
- T/C [7]: 107 % of control

Compound: CCCCCCCCCCCCCCCC[N+](C)(C)CC[S+](C)C
- T/C (dose: 12.5 mg/kg/injection, schedule: Q01DX009 (ip), vehicle: water): 96 % of control
- T/C (dose: 25.0 mg/kg/injection, schedule: Q01DX009 (ip), vehicle: water): 99 % of control
- T/C (dose: 50.0 mg/kg/injection, schedule: Q01DX009 (ip), vehicle: water): 100 % of control

Compound: CCOC(=O)c1cnc2ncccn12
- T/C [2]: 99 % of control
- T/C [5]: 101 % of control
- T/C [6]: 91 % of control

Compound: CC(C)n1c2c([n+](C)c1/C=C/c1ccccc1)C(=O)c1ccccc1C2=O
- T/C (dose: 0.44 mg/kg/injection, schedule: Q01DX009 (ip), vehicle: saline): 109 % of control
- T/C (dose: 0.66 mg/kg/injection, schedule: Q01DX009 (ip), vehicle: saline): 116 % of control
- T/C (dose: 1.0 mg/kg/injection, schedule: Q01DX009 (ip), vehicle: saline): 119 % of control
- T/C (dose: 1.5 mg/kg/injection, schedule: Q01DX009 (ip), vehicle: saline): 112 % of control

Compound: C/C(=N\NC(=S)N1CCCC1)c1cnccn1
- T/C (dose: 6.25 mg/kg/injection, schedule: Q01DX005 (ip), vehicle: saline with Tween-80): 100 % of control
- T/C (dose: 12.5 mg/kg/injection, schedule: Q01DX005 (ip), vehicle: saline with Tween-80): 103 % of control
- T/C (dose: 25.0 mg/kg/injection, schedule: Q01DX005 (ip), vehicle: saline with Tween-80): 100 % of control

Compound: Cc1c2ccncc2c(C)c2c1[nH]c1ccc(O)cc12
- T/C (dose: 6.25 mg/kg/injection, schedule: Q01DX009 (ip), vehicle: saline): 111 % of control
- T/C (dose: 6.25 mg/kg/injection, schedule: Q01DX009 (ip), vehicle: suspension in saline): 150 % of control
- T/C (dose: 12.5 mg/kg/injection, schedule: Q01DX009 (ip), vehicle: saline): 169 % of control
- T/C (dose: 12.5 mg/kg/injection, schedule: Q01DX009 (ip), vehicle: suspension in saline): 167 % of control

Compound: O=C(/C=C/c1ccccc1)c1c2ccccc2cc2ccccc12
- T/C (dose: 100.0 mg/kg/injection, schedule: Q01DX001 (ip), vehicle: saline with Tween-80): 107 % of control
- T/C (dose: 200.0 mg/kg/injection, schedule: Q01DX001 (ip), vehicle: saline with Tween-80): 100 % of control
- T/C (dose: 400.0 mg/kg/injection, schedule: Q01DX001 (ip), vehicle: saline with Tween-80): 91 % of control

Compound: COC1/C=C\OC2(C)Oc3c(C)c(O)c4c(O)c(c5[nH]cnc5c4c3C2=O)NC(=O)/C(C)=C\C=C\C(C)C(O)C(C)C(O)C(C)C(OC(C)=O)C1C (configuration not stated)
- T/C [1]: 102 % of control
- T/C [2]: 102 % of control
- T/C [5]: 100 % of control
- T/C [6]: 108 % of control

Compound: COC(=O)c1nnn(-c2ccc(S(N)(=O)=O)cc2)c1C(=O)c1ccc(Cl)c(Cl)c1
- T/C (dose: 60.0 mg/kg/injection, schedule: Q01DX005 (ip), vehicle: saline with Tween-80): 109 % of control
- T/C (dose: 120.0 mg/kg/injection, schedule: Q01DX005 (ip), vehicle: saline with Tween-80): 109 % of control
- T/C (dose: 240.0 mg/kg/injection, schedule: Q01DX005 (ip), vehicle: saline with Tween-80): 94 % of control
